This note sets out measurements from patent US9730937B2, “RAF kinase modulator compounds and methods of use thereof” (AMBIT BIOSCIENCES CORPORATION, priority 2008, dated 2017).

Test [1] concerns panel of 290 distinct kinases (321 in the larger panel), excluding mutant variants. The note with it: kinase selectivity score, class symbols.
Method: (§1) The liganded beads were blocked with excess biotin and washed with blocking buffer (SeaBlock (Pierce), 1% BSA, 0.05% Tween 20, 1 mM DTT) to remove unbound ligand and to reduce non-specific binding. […] Test compounds were prepared as 100× stocks in DMSO and rapidly diluted into the aqueous environment. DMSO was added to control assays lacking a test compound. Primary screen interactions were performed in polypropylene 384-well plates in a final volume of 34 μL, while Kd determinations were performed in polystyrene 96-well plates in a final volume of 135 μL. […] The kinase concentration in the eluates was measured by quantitative PCR. Each kinase was tested individually against each compound. KdS were determined using eleven serial threefold dilutions. A selectivity score, which is a quantitative measure of selectivity of a compound against a panel of enzymes, may be calculated for a compound by dividing the number of enzymes for which a compound meets a set criteria, (for example, a binding constant of 100 nM or less), by the total number of enzymes tested. […] (Note, for those compounds tested in a larger kinase panel, as indicated by an asterisk (*) next to the S35 score, the divisor is 321 (i.e. the larger panel contains 321 distinct kinases, excluding mutant variants.)).
Test [2] deals with RAF kinases (Homo sapiens (Human), UniProt P04049). The note with it: read-out: RAF1 Kd, class symbols.
Method: as §1
Test [3] deals with wild type BRAF kinase (Homo sapiens (Human), UniProt P15056). The settings on record: read-out: BRAF WT Kd, class symbols.
Sequence of wild type BRAF kinase (P15056 whole entry): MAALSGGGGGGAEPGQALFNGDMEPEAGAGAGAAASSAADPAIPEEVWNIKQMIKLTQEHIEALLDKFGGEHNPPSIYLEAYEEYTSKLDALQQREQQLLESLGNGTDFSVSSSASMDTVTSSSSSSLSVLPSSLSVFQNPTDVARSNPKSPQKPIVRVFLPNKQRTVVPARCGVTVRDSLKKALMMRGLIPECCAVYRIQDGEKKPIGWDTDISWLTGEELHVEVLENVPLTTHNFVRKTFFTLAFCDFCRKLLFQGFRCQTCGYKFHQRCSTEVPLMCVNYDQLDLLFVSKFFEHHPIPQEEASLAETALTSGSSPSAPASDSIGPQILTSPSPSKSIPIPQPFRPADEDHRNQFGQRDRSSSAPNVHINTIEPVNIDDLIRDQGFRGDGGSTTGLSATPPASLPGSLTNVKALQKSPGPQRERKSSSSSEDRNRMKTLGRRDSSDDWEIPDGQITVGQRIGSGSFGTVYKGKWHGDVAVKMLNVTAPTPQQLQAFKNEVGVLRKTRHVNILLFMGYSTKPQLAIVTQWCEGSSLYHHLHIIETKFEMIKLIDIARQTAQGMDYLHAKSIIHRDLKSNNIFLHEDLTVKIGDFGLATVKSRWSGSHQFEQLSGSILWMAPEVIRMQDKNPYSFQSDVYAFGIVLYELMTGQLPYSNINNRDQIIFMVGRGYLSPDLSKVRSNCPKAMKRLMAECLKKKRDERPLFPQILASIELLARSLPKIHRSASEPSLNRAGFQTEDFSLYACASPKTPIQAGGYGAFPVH
For test [4], the target named is mutant BRAF kinase (Homo sapiens (Human), UniProt P15056, V600E). The note with it: read-out: BRAF V600E Kd, class symbols.
Sequence of mutant BRAF kinase (P15056 whole entry V600E): as the sequence (P15056 whole entry) above, with V600E counted along it
The mark [5] stands for this setting: value marked * (larger kinase panel).

Each structure is given as a SMILES string. Where two headings read alike, the source gives them in different places.

Sequence of RAF kinases (P04049 whole entry): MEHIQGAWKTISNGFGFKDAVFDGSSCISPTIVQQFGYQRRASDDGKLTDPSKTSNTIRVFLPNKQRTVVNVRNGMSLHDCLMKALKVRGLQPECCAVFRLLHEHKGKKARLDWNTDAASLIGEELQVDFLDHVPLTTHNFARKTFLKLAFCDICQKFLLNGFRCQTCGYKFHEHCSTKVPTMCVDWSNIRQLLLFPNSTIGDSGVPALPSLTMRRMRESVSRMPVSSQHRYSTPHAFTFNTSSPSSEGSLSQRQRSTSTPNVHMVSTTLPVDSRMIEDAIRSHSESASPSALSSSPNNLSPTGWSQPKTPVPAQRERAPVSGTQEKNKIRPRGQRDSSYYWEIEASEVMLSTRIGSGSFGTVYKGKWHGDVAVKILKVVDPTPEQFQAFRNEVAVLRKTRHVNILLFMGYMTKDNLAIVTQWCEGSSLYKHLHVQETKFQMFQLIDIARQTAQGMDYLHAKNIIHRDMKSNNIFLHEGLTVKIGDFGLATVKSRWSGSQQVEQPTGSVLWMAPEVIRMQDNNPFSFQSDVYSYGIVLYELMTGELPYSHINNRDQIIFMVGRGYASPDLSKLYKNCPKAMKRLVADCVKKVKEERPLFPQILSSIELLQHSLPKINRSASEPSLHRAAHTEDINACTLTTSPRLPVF

What is called Kd is the free concentration of one partner at which half of the binding sites on the other are occupied at equilibrium, for simple one-to-one binding. On to `COc1cc2ncnc(Oc3cccc(NC(=O)Nc4cc(C(C)(C)C)on4)c3)c2cc1OCCCN1CCOCC1` [Ex 22, 1-(5-tert-butylisoxazol-3-yl)-3-(3-(7-methoxy-6-(3-morpholinopropoxy)quinazolin-4-yloxy)phenyl)urea], for which the S35 result in test [1] (290 distinct kinases) was “D (D > 0.40)”. Also, the Kd in test [2], in test [3] and in test [4] was < 250 nM each time.
Turning to `COc1cc2ncnc(Sc3cccc(NC(=O)Nc4cc(C(C)(C)C)on4)c3)c2cc1OCCCS(C)(=O)=O` [Ex 64, 1-(5-tert-butylisoxazol-3-yl)-3-(3-(7-methoxy-6-(3-(methylsulfonyl)propoxy)quinazolin-4-ylthio)phenyl)urea], in test [1] (290 distinct kinases), the S35 entry is given as “C (0.20 < C ≦ 0.40)”. Further, the Kd in test [2], in test [3] and in test [4] was < 250 nM each time.
For `COc1cc2ncnc(Sc3cccc(NC(=O)Nc4cc(C(C)(C)C)on4)c3)c2cc1OCCN1CCS(=O)(=O)CC1` [Ex 71, 1-(5-tert-butyl-isoxazol-3-yl)-3-(3-{6-[2-(1,1-dioxo-thiomorpholin-4-yl)-ethoxy]-7-methoxy-quinazolin-4-ylsulfanyl}-phenyl)-urea], the S35 result in test [1] (290 distinct kinases) is on record as “C (0.20 < C ≦ 0.40)”. Also, the Kd in test [2], in test [3] and in test [4] was < 250 nM in each case.
Consider `COc1cc2ncnc(Sc3cccc(NC(=O)Nc4cc(C(C)(C)C)on4)c3)c2cc1OCCS(C)(=O)=O` [Ex 88, 1-(5-tert-butylisoxazol-3-yl)-3-(3-(7-methoxy-6-(2-(methylsulfonyl)ethoxy)quinazolin-4-ylthio)phenyl)urea], for which, in test [1] (290 distinct kinases), the S35 entry is recorded as “C (0.20 < C ≦ 0.40)”. Also, the Kd in test [2], in test [3] and in test [4] was < 250 nM throughout.
With `COc1cc2nc(Cl)nc(Sc3cccc(NC(=O)Nc4cc(C(C)(C)C)on4)c3)c2cc1OC` [Ex 89, 1-(5-tert-butylisoxazol-3-yl)-3-(3-(2-chloro-6,7-dimethoxyquinazolin-4-ylthio)phenyl)urea], the S35 entry in test [1] (290 distinct kinases) is listed as “A (A ≦ 0.10)”. Further, the Kd in test [2], in test [3] and in test [4] was > 1000 nM throughout.
As for `COc1cc2c(Oc3cccc(NC(=O)Nc4cc(C(C)(C)C)on4)c3)ncnc2cc1OC[C@H](O)CN1CCN(C)CC1` [Ex 100, (R)-1-(5-tert-butylisoxazol-3-yl)-3-(3-(7-(2-hydroxy-3-(4-methylpiperazin-1-yl)propoxy)-6-methoxyquinazolin-4-yloxy)phenyl)urea], in test [1] (290 distinct kinases), the S35 result is “D (D > 0.40)”. The dissociation constant Kd in test [2], in test [3] and in test [4] was < 250 nM each time.
As to `COc1cc2c(Oc3cccc(NC(=O)Nc4cc(C(C)(C)C)on4)c3)ncnc2cc1O[C@H]1CCN(CC(F)(F)F)C1` [Ex 104, (S)-1-(5-tert-butylisoxazol-3-yl)-3-(3-{6-methoxy-7-[1-(2,2,2-trifluoroethyl)pyrrolidin-3-yloxy]quinazolin-4-yloxy}phenyl)urea], in test [1] (setting [5]), the S35 result is “B* (0.10 < B ≦ 0.20)”. The Kd in test [2], in test [3] and in test [4] was > 1000 nM throughout.
Regarding `COc1cc2c(Oc3cccc(NC(=O)Nc4cc(C(C)(C)C)on4)c3)ncnc2cc1OC1CCN(CC(F)F)CC1` [Ex 105, 1-(5-tert-butylisoxazol-3-yl)-3-(3-{7-[1-(2,2-difluoroethyl)piperidin-4-yloxy]-6-methoxyquinazolin-4-yloxy}phenyl)urea], the S35 entry in test [1] (setting [5]) was “C* (0.20 < C ≦ 0.40)”. Further, the Kd in test [2], in test [3] and in test [4] was > 1000 nM each time.
With `COc1cc2ncnc(Oc3cccc(NC(=O)Nc4cc(C(=O)N5CCOCC5)cc(C(F)(F)F)c4)c3)c2cc1OC` [Ex 149, 1-(3-(6,7-dimethoxyquinazolin-4-yloxy)phenyl)-3-(3-(morpholine-4-carbonyl)-5-(trifluoromethyl)phenyl)urea], the S35 entry in test [1] (setting [5]) is listed as “B* (0.10 < B ≦ 0.20)”. Besides, the Kd in test [2] and in test [3] was > 1000 nM throughout.
For the compound `COc1cc2ncnc(Oc3cccc(NC(=O)Nc4cc(C(C)(C)C)nn4-c4ccccc4)c3)c2cc1OC` [Ex 153, 1-(3-tert-butyl-1-phenyl-1H-pyrazol-5-yl)-3-(3-(6,7-dimethoxyquinazolin-4-yloxy)phenyl)urea], the S35 result in test [1] (setting [5]) is listed as “D* (D > 0.40)”. In addition, the Kd in test [2] and in test [3] was > 1000 nM in each case.
Turning to `COc1cc2ncnc(Oc3cccc(NC(=O)Nc4cc(C5(C(F)(F)F)CCC5)no4)c3)c2cc1OC` [Ex 155, 1-(3-(6,7-dimethoxyquinazolin-4-yloxy)phenyl)-3-(3-(1-(trifluoromethyl)cyclobutyl)isoxazol-5-yl)urea], the S35 entry in test [1] (setting [5]) is “C* (0.20 < C ≦ 0.40)”. Further, the Kd in test [2] and in test [3] was > 1000 nM in each case.
`COc1cc2ncnc(Sc3cccc(NC(=O)Nc4cc(C5(C(F)(F)F)CCC5)no4)c3)c2cc1OC` [Ex 156, 1-(3-(6,7-dimethoxyquinazolin-4-ylthio)phenyl)-3-(3-(1-(trifluoromethyl)cyclobutyl)isoxazol-5-yl)urea]: in test [1] (setting [5]), the S35 entry is “C* (0.20 < C ≦ 0.40)”. The Kd in test [2] and in test [3] was > 1000 nM each time.
For the compound `COc1cc2ncnc(Oc3cccc(NC(=O)Nc4cc(C(F)(F)F)nn4-c4ccccc4)c3)c2cc1OC` [Ex 161, 1-[3-(6,7-dimethoxyquinazolin-4-yloxy)phenyl]-3-[1-phenyl-3-(trifluoromethyl)-1H-pyrazol-5-yl]urea], the S35 result in test [1] (setting [5]) is “C* (0.20 < C ≦ 0.40)”. In addition, the Kd in test [2] and in test [3] was > 1000 nM in each case.
For the compound `CCOC(=O)Cn1nc(C(C)(C)C)cc1NC(=O)Nc1cccc(Oc2ncnc3cc(OC)c(OC)cc23)c1` [Ex 166, ethyl 2-(3-tert-butyl-5-{3-[3-(6,7-dimethoxyquinazolin-4-yloxy)phenyl]ureido}-1H-pyrazol-1-yl)acetate], the S35 result in test [1] (setting [5]) is “C* (0.20 < C ≦ 0.40)”. Also, the dissociation constant Kd in test [2] and in test [3] was > 1000 nM throughout.
With `CCOC(C)(C)c1cc(NC(=O)Nc2cccc(Oc3ncnc4cc(OC)c(OC)cc34)c2)n(-c2ccccc2)n1` [Ex 168, 1-[3-(6,7-dimethoxyquinazolin-4-yloxy)phenyl]-3-[3-(2-ethoxypropan-2-yl)-1-phenyl-1H-pyrazol-5-yl]urea], the S35 entry in test [1] (setting [5]) was “C* (0.20 < C ≦ 0.40)”. In addition, the dissociation constant Kd in test [2] and in test [3] was > 1000 nM in each case.
With `COc1cc2ncnc(Oc3cccc(NC(=O)Nc4cc(C(F)(F)F)nn4-c4ccc(F)cc4)c3)c2cc1OC` [Ex 171, 1-[3-(6,7-dimethoxyquinazolin-4-yloxy)phenyl]-3-[1-(4-fluorophenyl)-3-(trifluoromethyl)-1H-pyrazol-5-yl]urea], the S35 result in test [1] (setting [5]) is reported as “C* (0.20 < C ≦ 0.40)”. Moreover, the Kd in test [2] and in test [3] was > 1000 nM in each case.
For the compound `COc1cc2ncnc(Oc3cccc(NC(=O)Nc4cc(C(F)(F)F)nn4-c4ccc(C)cc4)c3)c2cc1OC` [Ex 172, 1-[3-(6,7-dimethoxyquinazolin-4-yloxy)phenyl]-3-[1-p-tolyl-3-(trifluoromethyl)-1H-pyrazol-5-yl]urea], the S35 result in test [1] (setting [5]) is “C* (0.20 < C ≦ 0.40)”. Also, the Kd in test [2] and in test [3] was > 1000 nM throughout.
As to `COc1cc2ncnc(Oc3cccc(NC(=O)Nc4ccccc4)c3)c2cc1OC` [Ex 182, 1-(3-(6,7-dimethoxyquinazolin-4-yloxy)phenyl)-3-phenylurea], the Kd in test [2], in test [3] and in test [4] was > 1000 nM each time.
With `COc1cc2ncnc(Sc3cccc(NC(=O)Nc4ccc(Cl)c(C(F)(F)F)c4)c3)c2cc1OC` [Ex 186, 1-(4-chloro-3-(trifluoromethyl)phenyl)-3-(3-(6,7-dimethoxyquinazolin-4-ylthio)phenyl)urea], in test [1] (setting [5]), the S35 entry is recorded as “B* (0.10 < B ≦ 0.20)”. The Kd in test [2] and in test [3] was > 1000 nM each time.
In the case of `COc1cc2ncnc(Sc3cccc(NC(=O)Nc4ccc(C(F)(F)F)c(OC)c4)c3)c2cc1OC` [Ex 190, 1-(3-(6,7-dimethoxyquinazolin-4-ylthio)phenyl)-3-(3-methoxy-4-(trifluoromethyl)phenyl)urea], the S35 result in test [1] (setting [5]) is on record as “B* (0.10 < B ≦ 0.20)”. Besides, the Kd in test [2] and in test [3] was > 1000 nM each time.
As for `COc1cc2ncnc(Sc3cccc(NC(=O)Nc4cc(C(F)(F)F)nn4-c4ccccc4)c3)c2cc1OC` [Ex 192, 1-[3-(6,7-dimethoxyquinazolin-4-ylthio)phenyl]-3-[1-phenyl-3-(trifluoromethyl)-1H-pyrazol-5-yl]urea], the S35 result in test [1] (setting [5]) is “C* (0.20 < C ≦ 0.40)”. In addition, the Kd in test [2] and in test [3] was > 1000 nM in each case.
Take `CCOC(=O)Cn1nc(C(C)(C)C)cc1NC(=O)Nc1cccc(Sc2ncnc3cc(OC)c(OC)cc23)c1` [Ex 195, ethyl 2-(3-tert-butyl-5-{3-[3-(6,7-dimethoxyquinazolin-4-ylthio)phenyl]ureido}-1H-pyrazol-1-yl)acetate]: the S35 entry in test [1] (setting [5]) was “C* (0.20 < C ≦ 0.40)”. In addition, the Kd in test [2] and in test [3] was > 1000 nM throughout.
Take `COc1cc2ncnc(Sc3cccc(NC(=O)Nc4cc(C(F)(F)F)nn4-c4ccc(F)cc4)c3)c2cc1OC` [Ex 198, 1-[3-(6,7-dimethoxyquinazolin-4-ylthio)phenyl]-3-[1-(4-fluorophenyl)-3-(trifluoromethyl)-1H-pyrazol-5-yl]urea]: in test [1] (setting [5]), the S35 result was “C* (0.20 < C ≦ 0.40)”. Also, the Kd in test [2] and in test [3] was > 1000 nM throughout.
For `COCCOc1cc2ncnc(Oc3cccc(NC(=O)Nc4cc(C(=O)N5CCOCC5)cc(C(F)(F)F)c4)c3)c2cc1OC` [Ex 205, 1-(3-(6-methoxy-7-(2-methoxyethoxy)quinazolin-4-yloxy)phenyl)-3-(3-(morpholine-4-carbonyl)-5-(trifluoromethyl)phenyl)urea], in test [1] (setting [5]), the S35 entry is “C* (0.20 < C ≦ 0.40)”. For the same compound, the Kd in test [2] and in test [3] was > 1000 nM throughout.
